Our source for the IC50 values is patent US10722514B2 (FLX Bio, Inc., priority 2017, dated 2020).

SMILES strings stand for the structures. Like-named read-outs stand apart in the source and are kept apart here.

The assay concerns the target T1, recombinant full-length USP7 (Homo sapiens, UniProt Q93009).
T1 construct: A 25 μl reaction volume containing recombinant full-length USP7 (62 pM)
Briefly: USP7-mediated ubiquitin-rhodamine cleavage assay. In kind it is biochemical. The following applies: recombinant full-length USP7 62 pM, ubiquitin-rhodamine 100 nM, 1 hour reaction at room temperature. The method in brief:
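IC50 values came from fluorescence measured after a 1 h room-temperature reaction of 62 pM enzyme with 100 nM ubiquitin-rhodamine, following 30 min compound preincubation; fits used four parameters.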

Where [1] appears, read: 30-minute incubation, read-out: Potency (USP7 IC50).
Where [2] appears, read: 30-minute incubation with compound, read-out: Potency: USP7 IC50.
[3] abbreviates: 30-minute pre-incubation, read-out: Potency (USP7 IC50).

T1 sequence (Q93009 whole entry): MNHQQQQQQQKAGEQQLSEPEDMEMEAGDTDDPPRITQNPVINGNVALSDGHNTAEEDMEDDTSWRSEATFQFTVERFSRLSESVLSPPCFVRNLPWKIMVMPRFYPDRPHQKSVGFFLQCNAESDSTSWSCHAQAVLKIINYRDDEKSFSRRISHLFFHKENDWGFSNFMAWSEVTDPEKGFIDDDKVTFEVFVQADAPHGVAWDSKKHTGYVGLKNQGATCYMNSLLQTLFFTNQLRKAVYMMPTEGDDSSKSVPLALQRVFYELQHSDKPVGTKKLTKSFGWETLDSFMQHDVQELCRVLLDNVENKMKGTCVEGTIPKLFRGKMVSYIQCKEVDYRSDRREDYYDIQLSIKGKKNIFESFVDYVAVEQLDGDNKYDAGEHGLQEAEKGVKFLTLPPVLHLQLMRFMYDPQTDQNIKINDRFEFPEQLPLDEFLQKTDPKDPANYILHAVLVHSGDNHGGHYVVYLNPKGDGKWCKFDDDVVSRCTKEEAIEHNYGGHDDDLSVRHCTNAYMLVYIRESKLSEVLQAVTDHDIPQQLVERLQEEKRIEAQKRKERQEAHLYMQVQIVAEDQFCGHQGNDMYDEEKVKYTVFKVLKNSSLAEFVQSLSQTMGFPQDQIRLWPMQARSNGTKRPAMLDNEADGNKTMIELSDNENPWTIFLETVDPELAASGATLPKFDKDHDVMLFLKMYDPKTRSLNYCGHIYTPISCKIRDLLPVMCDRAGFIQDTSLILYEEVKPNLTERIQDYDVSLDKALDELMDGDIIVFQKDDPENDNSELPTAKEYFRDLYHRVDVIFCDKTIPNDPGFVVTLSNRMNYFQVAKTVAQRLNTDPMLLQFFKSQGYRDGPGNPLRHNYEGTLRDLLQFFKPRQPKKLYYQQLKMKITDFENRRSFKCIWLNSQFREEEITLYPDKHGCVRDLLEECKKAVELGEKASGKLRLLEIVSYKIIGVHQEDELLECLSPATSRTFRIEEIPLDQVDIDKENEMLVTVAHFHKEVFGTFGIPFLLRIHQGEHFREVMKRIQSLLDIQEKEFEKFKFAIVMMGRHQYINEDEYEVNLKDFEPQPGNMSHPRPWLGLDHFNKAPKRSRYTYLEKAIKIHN

What is called IC50 is the point on the concentration scale where inhibition reaches its midpoint. Take `COC1CCN(C2CC(Oc3c(C)cc(Cl)cc3-c3ccnc4cc(Cn5c(=O)ccn(CC(F)(F)F)c5=O)sc34)C2)C1` (centres unmarked) [Example 684, 3-[[7-[5-chloro-2-[3-(3-methoxypyrrolidin-1-yl)cyclobutoxy]-3-methyl-phenyl]thieno[3,2-b]pyridin-2-yl]methyl]-1-(2,2,2-trifluoroethyl)pyrimidine-2,4-dione; 2,2,2-trifluoroacetic acid]: the IC50 under setting [1] was below 1000 nM. For the molecule `CCC(O)c1cc2ncnc(-c3cc(Cl)cc(C)c3O[C@@H]3CNC[C@@H]3F)c2s1` (stereo partly drawn) [Example 94, 1-(4-(5-Chloro-2-(((3R,4S)-4-fluoropyrrolidin-3-yl)oxy)-3-methylphenyl)thieno[3,2-d]pyrimidin-6-yl)propan-1-ol], the IC50 under setting [2] fell in the range of 1000 to 10000 nM. Turning to `Cc1cc(Cl)cc(-c2ccnc3cc(Cn4c(=O)ccn(CC(F)(F)F)c4=O)sc23)c1O[C@@H]1CNC[C@@H]1C` [Example 625, 3-[[7-[5-chloro-3-methyl-2-[(3S,4S)-4-methylpyrrolidin-3-yl]oxy-phenyl]thieno[3,2-b]pyridin-2-yl]methyl]-1-(2,2,2-trifluoroethyl)pyrimidine-2,4-dione], the IC50 under setting [3] is below 1000 nM. On the same count and under the same terms, then `CCN1CCC[C@H](Oc2c(C)cc(Cl)cc2-c2ccnc3cc(Cn4c(=O)ccn(C)c4=O)sc23)CC1` [Example 493, 3-[[7-[5-chloro-2-[(4S)-1-ethylazepan-4-yl]oxy-3-methyl-phenyl]thieno[3,2-b]pyridin-2-yl]methyl]-1-methyl-pyrimidine-2,4-dione], with below 1000 nM. In the case of `Cc1cc(Cl)cc(-c2ccnc3cc(CN4C(=O)C5CC5C4=O)sc23)c1O[C@@H]1CCNC[C@H]1F` (stereo partly drawn) [Example 293, 3-[[7-[5-chloro-2-[[(3R,4R)-3-fluoro-4-piperidyl]oxy]-3-methyl-phenyl]thieno[3,2-b]pyridin-2-yl]methyl]-3-azabicyclo[3.1.0]hexane-2,4-dione; 2,2,2-trifluoroacetic acid], the half-inhibitory concentration (IC50) under setting [2] is below 1000 nM. The same measure, in the same setting: to `Cc1cc(Cl)cc(-c2ccnc3cc([C@H](C)N4C(=O)C5CC5C4=O)sc23)c1O[C@H]1CCCNC1` (stereo partly drawn) [Example 288, 3-[(1S)-1-[7-[5-chloro-3-methyl-2-[[(3S)-3-piperidyl]oxy]phenyl]thieno[3,2-b]pyridin-2-yl]ethyl]-3-azabicyclo[3.1.0]hexane-2,4-dione; 2,2,2-trifluoroacetic acid] belongs below 1000 nM; to `Cc1cc(Cl)cc(-c2ncnc3cc(CN4C(=O)CCN(C)C4=O)sc23)c1O[C@H]1CCCNC1` [Example 252, (S)-3-((4-(5-Chloro-3-methyl-2-(piperidin-3-yloxy)phenyl)thieno[3,2-d]pyrimidin-6-yl)methyl)-1-methyldihydropyrimidine-2,4(1H,3H)-dione], below 1000 nM; to `Cc1cc(C(F)(F)F)cc(-c2ccnc3cc(Cn4c(=O)ccn(C)c4=O)sc23)c1O[C@@H]1CNC[C@@H]1F` [Example 132, 3-((7-(2-(((3R,4S)-4-Fluoropyrrolidin-3-yl)oxy)-3-methyl-5-(trifluoromethyl)phenyl)thieno[3,2-b]pyridin-2-yl)methyl)-1-methylpyrimidine-2,4(1H,3H)-dione], below 1000 nM.

Consider `Cc1cc(Cl)cc(-c2ccnc3cc(Cn4c(=O)ccn(CC(F)(F)F)c4=O)sc23)c1OC1CC(N2CCOC[C@@H]2C)C1` (stereo partly drawn) [Example 658, 3-[[7-[5-chloro-3-methyl-2-[3-[(3S)-3-methylmorpholin-4-yl]cyclobutoxy]phenyl]thieno[3,2-b]pyridin-2-yl]methyl]-1-(2,2,2-trifluoroethyl)pyrimidine-2,4-dione; 2,2,2-trifluoroacetic acid], for which the IC50 under setting [3] is below 1000 nM. For `Cc1cc(C#N)cc(-c2ccnc3cc(CN4C(=O)CCS4(=O)=O)sc23)c1O[C@@H]1CNC[C@@H]1F` [Example 114, 3-(2-((1,1-Dioxido-3-oxoisothiazolidin-2-yl)methyl)thieno[3,2-b]pyridin-7-yl)-4-(((3R,4S)-4-fluoropyrrolidin-3-yl)oxy)-5-methylbenzonitrile], under setting [2], the IC50 is below 1000 nM.

On to `CCC(O)c1cc2nccc(-c3cc(Cl)cc(C)c3OCC3CNC3)c2s1` (centres unmarked) [Example 14, 1-(7-(2-(Azetidin-3-ylmethoxy)-5-chloro-3-methylphenyl)thieno[3,2-b]pyridin-2-yl)propan-1-ol], for which the IC50 under setting [2] is 1000 to 10000 nM. Take `Cc1cc(Cl)cc(-c2ccnc3cc(Cn4c(=O)ccn(CC(F)(F)F)c4=O)sc23)c1OC1CC(N2CCC[C@H]2CF)C1` (stereo partly drawn) [Example 687, 3-[[7-[5-chloro-2-[3-[(2S)-2-(fluoromethyl)pyrrolidin-1-yl]cyclobutoxy]-3-methyl-phenyl]thieno[3,2-b]pyridin-2-yl]methyl]-1-(2,2,2-trifluoroethyl)pyrimidine-2,4-dione; 2,2,2-trifluoroacetic acid]: under setting [1], the 50% inhibitory concentration (IC50) was below 1000 nM. On to `Cc1cc(Cl)cc(-c2ccnc3cc(CN4C(=O)CCC4=O)sc23)c1O[C@@H]1CN[C@@H](CF)C1` [Example 101, 1-((7-(5-Chloro-2-(((3S,5R)-5-(fluoromethyl)pyrrolidin-3-yl)oxy)-3-methylphenyl)thieno[3,2-b]pyridin-2-yl)methyl)pyrrolidine-2,5-dione], for which the IC50 under setting [2] was below 1000 nM. The same measure, in the same setting: then `Cc1cc(Cl)cc(-c2ncnc3cc(CN4C(=O)CC(C)C4=O)sc23)c1O[C@@H]1CNC[C@@H]1F` (stereo partly drawn) [Example 378, 1-[[4-[5-chloro-2-[(3R,4S)-4-fluoropyrrolidin-3-yl]oxy-3-methyl-phenyl]thieno[3,2-d]pyrimidin-6-yl]methyl]-3-methyl-pyrrolidine-2,5-dione; 2,2,2-trifluoroacetic acid], with below 1000 nM; and `Cc1cc2nccc(-c3cc(Cl)cc(C)c3OCC3CNC3)c2s1` [Example 37, 7-(2-(Azetidin-3-ylmethoxy)-5-chloro-3-methylphenyl)-2-methylthieno[3,2-b]pyridine], with 1000 to 10000 nM; and `Cc1cc(Cl)cc(-c2ncnc3cc(CN4C(=O)C5CC5C4=O)sc23)c1OC1CCNCC1` (centres unmarked) [Example 231, 3-((4-(5-Chloro-3-methyl-2-(piperidin-4-yloxy)phenyl)thieno[3,2-d]pyrimidin-6-yl)methyl)-3-azabicyclo[3.1.0]hexane-2,4-dione], with 1000 to 10000 nM. Regarding `Cc1cc(Cl)cc(-c2ccnc3cc(Cn4c(=O)ccn(C)c4=O)sc23)c1O[C@@H]1CN[C@H](C(=O)O)C1` [Example 486, (2S,4S)-4-[4-chloro-2-methyl-6-[2-[(3-methyl-2,6-dioxo-pyrimidin-1-yl)methyl]thieno[3,2-b]pyridin-7-yl]phenoxy]pyrrolidine-2-carboxylic acid], the IC50 under setting [3] was below 1000 nM. Take `Cc1cc(Cl)cc(-c2ncnc3ccsc23)c1O[C@H]1CCCNC1` [Example 262, (S)-4-(5-Chloro-3-methyl-2-(piperidin-3-yloxy)phenyl)thieno[3,2-d]pyrimidine]: the IC50 under setting [2] fell in the range of 10000 to 30000 nM. The same measure, in the same setting: to `Cc1cc(C#N)cc(-c2ccnc3cc(COC4=NS(=O)(=O)CC4)sc23)c1O[C@@H]1CNC[C@@H]1F` [Example 115, 3-(2-(((1,1-Dioxido-4,5-dihydroisothiazol-3-yl)oxy)methyl)thieno[3,2-b]pyridin-7-yl)-4-(((3R,4S)-4-fluoropyrrolidin-3-yl)oxy)-5-methylbenzonitrile] belongs 1000 to 10000 nM. `Cc1cc(Cl)cc(-c2ccnc3cc(CN4C(=O)OC(C)(C)C4=O)sc23)c1O[C@H]1CCCNC1` [Example 311, 3-[[7-[5-chloro-3-methyl-2-[[(3S)-3-piperidyl]oxy]phenyl]thieno[3,2-b]pyridin-2-yl]methyl]-5,5-dimethyl-oxazolidine-2,4-dione; 2,2,2-trifluoroacetic acid]: the half-maximal inhibitory concentration (IC50) under setting [2] is below 1000 nM. Regarding `Cc1cc(Cl)cc(-c2ncnc3cc(CN4C(=O)CCC4=O)sc23)c1OC1CCNCC1` [Example 177, 1-((4-(5-Chloro-3-methyl-2-(piperidin-4-yloxy)phenyl)thieno[3,2-d]pyrimidin-6-yl)methyl)pyrrolidine-2,5-dione], the half-inhibitory concentration (IC50) under setting [2] was below 1000 nM.

As for `Cc1cc(Cl)cc(-c2ccnc3cc(CO)sc23)c1OCC12CNCC1C2` (centres unmarked) [Example 69, (7-(2-((3-Azabicyclo[3.1.0]hexan-1-yl)methoxy)-5-chloro-3-methylphenyl)thieno[3,2-b]pyridin-2-yl)methanol], the IC50 under setting [2] lay in the range of 10000 to 30000 nM. Consider `Cc1cc(Cl)cc(-c2ccnc3cc(CO)sc23)c1O[C@@H]1CNC[C@@H]1C(C)C` [Example 68, (7-(5-Chloro-2-(((3S,4S)-4-isopropylpyrrolidin-3-yl)oxy)-3-methylphenyl)thieno[3,2-b]pyridin-2-yl)methanol], for which the IC50 under setting [2] is above 30000 nM. Same read-out and setting: to `Cc1cc(Cl)cc(-c2ccnc3cc(Cn4c(=O)ccn(C(C)C)c4=O)sc23)c1O[C@@H]1CNC[C@@H]1C` [Example 329, 3-[[7-[5-chloro-3-methyl-2-[(3S,4S)-4-methylpyrrolidin-3-yl]oxy-phenyl]thieno[3,2-b]pyridin-2-yl]methyl]-1-isopropyl-pyrimidine-2,4-dione] belongs below 1000 nM.

For `Cc1cc(Cl)cc(-c2ccnc3cc(Cn4c(=O)ccn(C(C)C)c4=O)sc23)c1O[C@H]1CCC2NCCO[C@H]21` (stereo partly drawn) [Example 511, 4-[[7-[2-[[(7S,7aR)-2,3,4,4a,5,6,7,7a-octahydrocyclopenta[b][1,4]oxazin-7-yl]oxy]-5-chloro-3-methyl-phenyl]thieno[3,2-b]pyridin-2-yl]methyl]-1-isopropyl-pyrimidine-2,4-dione], the IC50 under setting [3] was below 1000 nM. On to `Cc1cc(Cl)cc(-c2ccnc3cc(CN4C(=O)C5C(C4=O)C5(C)C)sc23)c1O[C@@H]1C[C@H]2CN[C@@H]1C2` (stereo partly drawn) [Example 331, 3-[[7-[2-[[(1S,4R,5R)-3-azabicyclo[2.2.1]heptan-5-yl]oxy]-5-chloro-3-methyl-phenyl]thieno[3,2-b]pyridin-2-yl]methyl]-6,6-dimethyl-3-azabicyclo[3.1.0]hexane-2,4-dione], for which the 50% inhibitory concentration (IC50) under setting [2] was below 1000 nM.
